A short description of this data set: Log P determination by HPLC on a reversed-phase column (EEC Directive 79/831, Annex V.A8). It counts as physicochemical. As to conditions: reversed-phase HPLC column (C 18); pH 2.3. The method, then:
The determination of the Log P values occurred according to EEC Directive 79/831, Annex V.A8 using HPLC (High Performance Liquid Chromatography) on a reversed-phase column (C 18). Temperature: 43° C. Eluents for determination in the acidic range (pH 2.3): 0.1% aqueous phosphoric acid, acetonitrile; linear gradient of 10% acetonitrile to 90% acetonitrile. Calibration took place using unbranched alkane-2-ones (with 3 to 16 carbon atoms) with known Log P values (the Log P values were determined on the basis of the retention times by way of linear interpolation between two consecutive alkanones).

This is an account of results in patent US20090105316A1, “Biphenyl Thiazole Carboxamides” (Bayer CropScience AG, priority 2004, published 2009).

Compound `Cc1ccc(-c2cc(C(F)(F)F)ccc2N)cc1` [4′-methyl-5-(trifluoromethyl)biphenyl-2-amine] displayed a chromatographic logP of 3.98.
On to `Cc1ccc(-c2cc(C(F)(F)F)ccc2NC(=O)c2sc(C)nc2C(F)(F)F)cc1` [Compound 1.15, 2-methyl-N-[4′-methyl-5-(trifluoromethyl)biphenyl-2-yl]-4-(trifluoromethyl)-1,3-thiazole-5-carboxamide], for which the chromatographic logP was 4.48.
